These results are taken from patent US20240196663A1, “DISPLAY APPARATUS, DISPLAY MODULE, AND ELECTRONIC DEVICE” (SEMICONDUCTOR ENERGY LABORATORY CO., LTD., priority 2022, published 2024).

The nature of the data set: physchem.

Structures are written as SMILES.

`c1cnccn1` [pyrazine, reference compound] displayed a pKa of 0.37.

In turn, `c1cc(N2CCCn3ccnc32)nc(N2CCCn3ccnc32)c1` [2,6tip2Py, 8,8′-pyridine-2,6-diyl-bis(5,6,7,8-tetrahydroimidazo[1,2-a]pyrimidine)] came in with a pKa of 9.58.

In turn, `c1cnc2c(c1)ccc1cccnc12` [phenanthroline, reference compound] displayed a pKa of 4.8.

As for `c1ccc2c(c1)-c1ccccc1C21c2ccccc2-c2ccc(N3CCCN4CCCN=C43)cc21` [2hppSF, 1-(9,9′-spirobi[9H-fluoren]-2-yl)-1,3,4,6,7,8-hexahydro-2H-pyrimido[1,2-a]pyrimidine], the pKa was found to be 13.9.

`c1cc(N2CCCC2)c2ccc3c(N4CCCC4)ccnc3c2n1` [Pyrrd-Phen, 4,7-di-1-pyrrolidinyl-1,10-phenanthroline] displayed a pKa of 11.2.

The compound `c1cc2ccc3ccc(N4CCCN5CCCN=C54)nc3c2nc1N1CCCN2CCCN=C21` [2,9hpp2Phen, 2,9-bis(1,3,4,6,7,8-hexahydro-2H-pyrimido[1,2-a]pyrimidin-1-yl)-1,10-phenanthroline] registered a pKa of 13.3.

As for `c1cc(-c2ccc3oc4c(-c5cccc(-c6cccc7c6sc6ccccc67)c5)ncnc4c3c2)cc(-c2cccc3c2sc2ccccc23)c1` [4,8mDBtP2Bfpm, 4,8-bis[3-(dibenzothiophen-4-yl)phenyl]-[1]benzofuro[3,2-d]pyrimidine], the pKa was 0.6.

For orientation: pKa means the negative logarithm of the acid dissociation constant. High values mean a group that holds its proton tightly, low ones a group that gives up its proton readily.
